From patent US6551774B1, “Diagnostic methods for conditions associated with elevated cellular levels of telomerase activity” (Board of Regents, The University of Texas System, priority 1992, dated 2003)
Structures can show the parent of a compound that is named as a salt. Where two headings read alike, the source gives them in different places.

Assays:
[1] = system: Tetrahymena cells; test: Progeny formation (cycloheximide resistance) of Tetrahymena conjugated in the presence of analog; format: cell-based, Tetrahymena thermophila; conditions: for % CHX-R: 0.017 mM analog (head prints MM)
Description: For analysis of cycloheximide (CHX) sensitivity of cells conjugated in the presence of analog, 50 ml cultures of each cell type were grown overnight in 2% PPYS, starved in Dryl's for 18 hours, mated (5×10^5 cells/ml) for 6 hours, then analog was added. Cells were allowed to complete mating in the presence of the analog. Twenty-four hours after mixing, cells were diluted in Dryl's solution, counted and plated at 1 cell per well of 96-well plates in 1% PPYS without analog. Cells were grown for 4 days in a humid chamber at 30° C., without shaking. Cells were then replica plated into 1% PPYS plus 15 μg/ml cycloheximide, allowed to grow for four days before scoring, and percent of CHX-resistant wells was calculated. Because generation of progeny expressing the cycloheximide marker requires successful production of a new macronucleus, cells whose macronuclear development was disrupted by the analog are killed in CHX.
This process involves de novo formation of new macronuclear telomeres in the progeny cells. Macronuclear development in ciliated protozoans such as Tetrahymena involves developmentally programmed, site-specific fragmentation of germline chromosomes into linear subchromosomes, whose ends are healed by de novo addition of telomeres. […] Because of the immediate requirement for telomere addition to fragmented DNA, it is possible that the latter process might be more sensitive to telomerase inhibition than telomere maintenance during vegetative growth. To test whether nucleoside analogs cause inhibition of macronuclear development due to a disruption of telomere formation, we mated two strains of Tetrahymena which are sensitive to cycloheximide, but whose progeny after mating are resistant to cycloheximide. Synchronized mated cells were treated with AZT at concentrations ranging from 10 μM to 5 mM for a period beginning just prior to when macronuclear development begins and continuing during macronuclear development (the period 6-24 hours after mating was initiated). […] In attempts to maximize the effect of AZT, cells were either refed at 6 hrs with 2% PPYS or Isobroth, or starved until 24 hrs (the duration of the AZT treatment). Such starvation arrests macronuclear development at an intermediate stage. When refed, macronuclear development would then be forced to proceed in the presence of the AZT. Control, unmated parental cells were also plated and exposed to drug.

[2] = biological target: T1, Tetrahymena thermophila telomerase (Tetrahymena thermophila, UniProt O77448); test: Tetrahymena telomerase in vitro assay (incorporation of 32P label, gel of products); format: biochemical; conditions: for position on the telomerase RNA template of strongest chain termination: template residues numbered 1 to 9 (5′ to 3′); for Km: from competition of unlabeled with 32P-labeled nucleotide; for effect on the telomerase reaction: dideoxynucleoside triphosphates
T1 construct: A standard assay contained 50% by volume of heparin-agarose purified telomerase; endogenous in cells; host or cells: Tetrahymena thermophila cell extracts, heparin-agarose purified
T1 sequence (O77448 1-1117): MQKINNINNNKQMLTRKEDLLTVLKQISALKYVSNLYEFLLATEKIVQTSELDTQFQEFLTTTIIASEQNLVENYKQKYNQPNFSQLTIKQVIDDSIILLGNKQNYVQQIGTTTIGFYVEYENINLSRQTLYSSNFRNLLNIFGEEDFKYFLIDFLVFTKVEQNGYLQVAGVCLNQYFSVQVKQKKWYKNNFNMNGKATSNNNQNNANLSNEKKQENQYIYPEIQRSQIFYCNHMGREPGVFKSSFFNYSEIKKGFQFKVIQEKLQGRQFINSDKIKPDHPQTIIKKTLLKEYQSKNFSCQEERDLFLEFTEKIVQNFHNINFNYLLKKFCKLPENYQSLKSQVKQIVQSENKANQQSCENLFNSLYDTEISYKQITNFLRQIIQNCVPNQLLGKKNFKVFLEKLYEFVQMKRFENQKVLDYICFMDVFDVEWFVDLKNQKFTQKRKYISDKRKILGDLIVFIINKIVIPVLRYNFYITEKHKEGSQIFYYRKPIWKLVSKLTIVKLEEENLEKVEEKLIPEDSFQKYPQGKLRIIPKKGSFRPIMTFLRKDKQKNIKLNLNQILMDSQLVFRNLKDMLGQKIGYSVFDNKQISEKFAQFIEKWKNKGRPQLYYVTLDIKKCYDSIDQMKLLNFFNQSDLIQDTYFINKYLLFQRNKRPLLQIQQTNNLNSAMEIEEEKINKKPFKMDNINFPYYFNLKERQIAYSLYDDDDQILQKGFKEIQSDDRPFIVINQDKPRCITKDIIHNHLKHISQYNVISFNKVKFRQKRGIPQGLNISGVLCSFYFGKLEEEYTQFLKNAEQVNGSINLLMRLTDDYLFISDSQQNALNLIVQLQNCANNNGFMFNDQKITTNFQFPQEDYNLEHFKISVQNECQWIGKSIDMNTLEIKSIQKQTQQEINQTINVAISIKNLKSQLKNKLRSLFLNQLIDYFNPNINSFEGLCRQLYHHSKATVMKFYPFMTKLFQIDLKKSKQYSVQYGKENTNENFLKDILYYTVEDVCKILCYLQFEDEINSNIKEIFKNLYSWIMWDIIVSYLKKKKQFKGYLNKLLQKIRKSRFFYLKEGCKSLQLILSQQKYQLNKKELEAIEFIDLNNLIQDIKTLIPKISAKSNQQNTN
T1 sequence (W7X6T2 1-542 partner): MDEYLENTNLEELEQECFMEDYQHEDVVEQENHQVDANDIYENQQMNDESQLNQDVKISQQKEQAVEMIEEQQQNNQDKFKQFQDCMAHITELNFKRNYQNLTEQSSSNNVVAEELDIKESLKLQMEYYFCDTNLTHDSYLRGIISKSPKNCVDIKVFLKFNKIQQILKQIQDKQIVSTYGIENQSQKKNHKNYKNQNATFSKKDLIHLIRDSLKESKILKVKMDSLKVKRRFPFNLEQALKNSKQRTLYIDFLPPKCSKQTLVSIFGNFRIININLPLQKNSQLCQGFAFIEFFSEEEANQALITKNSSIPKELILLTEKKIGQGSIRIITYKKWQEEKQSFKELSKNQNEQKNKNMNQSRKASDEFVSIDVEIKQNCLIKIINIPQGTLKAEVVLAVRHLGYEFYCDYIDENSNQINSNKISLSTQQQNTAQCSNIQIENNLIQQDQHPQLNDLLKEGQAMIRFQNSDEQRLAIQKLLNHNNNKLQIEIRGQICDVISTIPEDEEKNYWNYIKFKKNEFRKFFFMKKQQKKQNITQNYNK
Description: AZT-triphosphate was obtained from Burroughs Wellcome, N.C. Ara-G-triphosphate was purchased from Calbiochem and ddNTPs from Sigma. Reaction mixes were kept on ice until ready for use, and then mixed into tubes containing analog for incubation at 30° C. Reaction times were thirty minutes. […] Identical reactions were run without primers as controls. […] Incorporation of ^32P label from either ^32P-TTP or ^32P-dGTP was measured to monitor the reaction rate.
The standard telomerase assay used in this example consists of incorporation of dGTP and TTP substrates, one triphosphate ^32P-labeled, into synthesized DNA in the reaction shown in FIG. 18A. […] Incorporation of ^32P label from either ^32P-TTP or ^32P-dGTP was measured to monitor the reaction rate, and the distributions of elongation products were analyzed by denaturing polyacrylamide gel electrophoresis.

[3] = system: Tetrahymena cells; test: Telomere length in vegetatively grown Tetrahymena by Southern blot; format: cell-based, Tetrahymena thermophila; conditions: 100 μM and 1 mM in Isobroth, after 5 days (16 generations)
Description: For analysis of macronuclear DNA from cultures containing the nucleoside analog AZT (Sigma), or controls lacking analog, at various timepoints during vegetative divisions, cells from stationary stock cultures were inoculated into 25 ml thymine-deficient Iso-sensitest broth (‘Isobroth’, Oxoid USA) in 250 ml flasks. Cultures were incubated at 30° C. with shaking (100 rpm) for 48 hours. Cells were counted and plated at 1000 cells/1.5 ml in 24-well plates (Falcon) and grown at 30° C., without shaking, for 48 hours. 5 μl of these log phase cells were used to inoculate 1 ml cultures (Isobroth) containing varied concentrations of nucleoside analog. Thereafter, every 2-4 days cells were transferred, either 5 μl per well, or 1-3 μl using a multi-pronged replicator into fresh 1 ml broth containing AZT. Remaining cells were pelleted and stored at −80° C. until processed for DNA analysis.
For analysis of macronuclear DNA from vegetative cultures containing the nucleoside analogs Ara-G (Calbiochem), ddG (Calbiochem), or ddI (Calbiochem), or controls lacking analog, stock cultures were grown overnight in 2% PPYS as described. Cells were counted and plated at 100 cells/2 ml in 2% PPYS containing varied amounts of analog, 1% DMSO (Fisher) (as a control for ddG and Ara-G), or 2% PPYS alone. Cells were replica plated into fresh medium every 2-6 days, and remaining cells were pelleted and stored at −80° C. until processed for DNA analysis.
For analysis of macronuclear DNA from vegetative cultures containing d4T (Sigma) or control lacking the analog, stock cultures (SB210 VI) were grown overnight in Isobroth as described. Cells were then counted and duplicate cultures inoculated at 500 cells/5 ml Isobroth in 50 ml conical tubes, and grown at 30° C., shaking 80 rpm. 500-2000 cells were transfered to fresh broth every 2-4 days, and the remainder pelleted and stored at −80° C. until processed for DNA analysis.
Restriction digests, agarose gel electrophoresis, transfer of DNA to Nytran filters (Schleicher and Schuell), and hybridization with ^32P-nick-trapplated or random-primed probes were carried out using standard procedures (Maniatis et.al. 1989). Telomere length was analyzed as described previously for Tetrahymena [Larson 50 Cell, 477, 1987].
Telomere lengths in cells grown in the presence of the different analogs were monitored by Southern blot analysis of DNA samples extracted at a series of time points during the subculturings. The telomeres of cells grown vegetatively in 1 and 5 mM AZT in 2% PPYS medium were reproducibly shortened by up to an average of 170 base pairs compared with the control cultures grown in 2% PPYS in the absence of the drug (FIG. 21A and B). This shortening of telomeres occured in a concentration-dependent manner (FIG. 21B), with at least 50% of the maximal shortening effect occurring by 10 μM AZT, the lowest concentration tested.

Nc1nc2c(ncn2COCCO)c(=O)[nH]1 [Acyclo-G, Acycloguanosine]
% CHX-R ([1]; first block for the analog): 75% | % CHX-R ([1]; second block for the analog): 69% | # CHX-R ([1]; 0.017 mM analog, first block for the analog, number of cycloheximide-resistant wells): 80 | irreversible disruption of macronuclear development ([1]; analog present during conjugation): little or no irreversible disruption

Nc1nc2c(ncn2[C@@H]2O[C@H](COP(=O)(O)OP(=O)(O)OP(=O)(O)O)[C@@H](O)[C@@H]2O)c(=O)[nH]1 [Ara-GTP, arabinofuranyl-guanosine triphosphate]
IC50 ([2]; standard assay, 32P-dGTP / 32P-NTP incorporation, 30 min at 30° C., read-out: concentration at which 50% inhibition of incorporation of 32P label occurred): 0.7 µM | position on the telomerase RNA template of strongest chain termination [2]: 4

[H]/N=C(/N)N[C@H]1[C@H](O)[C@@H](O)[C@H](O[C@@H]2O[C@@H](C)[C@](O)(C=O)[C@H]2O[C@@H]2O[C@@H](CO)[C@H](O)[C@@H](O)[C@@H]2NC)[C@@H](N/C(N)=N\[H])[C@@H]1O [Streptomycin sulfate, streptomycin sulfate]
effect on amount and average length of elongation products ([2]; 40 mM, 40 mM sodium sulfate control little decrease): dramatically reduced

Cc1cn([C@H]2C[C@H](O)[C@@H](COP(=O)(O)OP(=O)(O)OP(=O)(O)O)O2)c(=O)[nH]c1=O [TTP]
Km [2]: ~5 µM

Cc1cn([C@H]2C=C[C@@H](CO)O2)c(=O)[nH]c1=O [d4T, 3′ deoxy-2′,3′-didehydrothymidine]
telomere length [3]: produced shortened telomeres

Nc1nc2c(ncn2[C@H]2C[C@H](O)[C@@H](COP(=O)(O)OP(=O)(O)OP(=O)(O)O)O2)c(=O)[nH]1 [dGTP]
Km [2]: 1 to 2 µM

Nc1ncnc2c1ncn2[C@H]1CC[C@@H](COP(=O)(O)OP(=O)(O)OP(=O)(O)O)O1 [ddATP]
effect on the telomerase reaction [2]: no significant effects

Nc1ccn([C@H]2CC[C@@H](COP(=O)(O)OP(=O)(O)OP(=O)(O)O)O2)c(=O)n1 [ddCTP]
effect on the telomerase reaction [2]: no significant effects

Nc1nc2c(ncn2[C@H]2CC[C@@H](COP(=O)(O)OP(=O)(O)OP(=O)(O)O)O2)c(=O)[nH]1 [ddGTP]
IC50 [2]: < 0.1 µM

O=c1[nH]cnc2c1ncn2[C@H]1CC[C@@H](COP(=O)(O)OP(=O)(O)OP(=O)(O)O)O1 [ddITP, dideoxyinosine triphosphate]
IC50 [2]: 3 µM | position on the telomerase RNA template of strongest chain termination [2]: 5

Cc1cn([C@H]2CC[C@@H](COP(=O)(O)OP(=O)(O)OP(=O)(O)O)O2)c(=O)[nH]c1=O [ddTTP]
IC50 [2]: 5 µM

CO[C@H]1/C=C/O[C@@]2(C)Oc3c(C)c(O)c4c(O)c(c(/C=N/N5CCN(C)CC5)c(O)c4c3C2=O)NC(=O)/C(C)=C\C=C\[C@H](C)[C@H](O)[C@@H](C)[C@@H](O)[C@@H](C)[C@H](OC(C)=O)[C@@H]1C [rifampin]
effect on quantitative incorporation of label and banding pattern ([2]; concentrations up to 100 μg/ml): did not affect the quantitative incorporation of label or change the banding pattern
